According to US11001569B2, “6-membered heteroaromatic substituted cyanoindoline derivatives as NIK inhibitors” (Janssen Pharmaceutica NV, priority 2016, dated 2021):
Like-named read-outs stand apart in the source and are kept apart here.

Assays:
[1] = tested on: P-IKKα levels in L363 (NIK translocated multiple myeloma) cells; test: Effect of compounds on P-IKKα levels in L363 cells (Mesoscale sandwich immuno-assay); assay type: cell-based, human; conditions: 2 hr treatment, averaged values, read-out: Inhibition of pIKKα_L-363 (IC50 (nM))
Procedure: Effect of Compounds on P-IKKα Levels in L363 (NIK Translocated Multiple Myeloma) Cells
All compounds tested were dissolved in DMSO and further dilutions were made in culture medium. Final DMSO concentration was 1% (v/v) in cell assays. The human L363 cells (ATCC) were cultured in RPMI 1640 medium supplemented with GlutaMax and 10% fetal calf serum (PAA). Cells were routinely maintained at densities of 0.2×10^6 cells per ml-1×10^6 cells per ml at 37° C. in a humidified 5% CO2 atmosphere. Cells were passaged twice a week splitting back to obtain the low density. Cells were seeded in 96 well plates (Nunc 167008) at 2×10^6 per ml media in a volume of 75 μl per well plus 25 μl 1 μg/ml recombinant human B-cell activating factor (BAFF/BLyS/TNFSF13B). Seeded cells were incubated at 37° C. in a humidified 5% CO2 atmosphere for 24 hr. Drugs and/or solvents were added (20 μl) to a final volume of 120 μl. Following 2 hr treatment plates were removed from the incubator and cell lysis was achieved by the addition of 30 μl 5× lysis buffer followed by shaking on a plate shaker at 4° C. for 10 min. At the end of this incubation lysed cells were centrifuged at 800×g for 20 min at 4° C. and the lysate was assessed for P-IKK levels by sandwich immuno-assay carried out in anti-rabbit antibody coated Mesoscale plates. Within an experiment, the results for each treatment were the mean of 2 replicate wells. For initial screening purposes, compounds were tested using an 8 point dilution curve (serial 1:3 dilutions). […] The blank incubation value was subtracted from all control and sample values. To determine the IC50 a sigmoidal curve was fitted to the plot of % inhibition of control P-IKKα levels versus Log10 compound concentration.

[2] = tested on: JJN-3 (NIK translocated) multiple myeloma cells; test: Antiproliferative activity on JJN-3 multiple myeloma cells (CellTiter-Glo); assay type: cell-based, human; conditions: JJN-3 (NIK translocated) cells, 96 hr treatment, averaged values, read-out: JJN-3 Proliferation inhibition (IC50 (nM))
Summary of the method: (§1)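 Cells plated at 15000 (JJN3) or 20000 (KMS12BM) per well and treated 96 h at 37° C, 5% CO2, final DMSO 0.3%, 9-point 1:3 dilutions. Viability by CellTiter-Glo luminescence; time-zero blank subtracted, growth expressed as percent of untreated control.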

[3] = target: recombinant human NF-kappaB-inducing Kinase (NIK/MAP3K14) (Homo sapiens, UniProt Q99558); test: Inhibition of auto-phosphorylation of recombinant human NIK/MAP3K14 activity (AlphaScreen); assay type: biochemical; conditions: 25 microM ATP, averaged over all measurements on all batches
Chain of recombinant human NF-kappaB-inducing Kinase (NIK/MAP3K14) (Q99558 whole entry): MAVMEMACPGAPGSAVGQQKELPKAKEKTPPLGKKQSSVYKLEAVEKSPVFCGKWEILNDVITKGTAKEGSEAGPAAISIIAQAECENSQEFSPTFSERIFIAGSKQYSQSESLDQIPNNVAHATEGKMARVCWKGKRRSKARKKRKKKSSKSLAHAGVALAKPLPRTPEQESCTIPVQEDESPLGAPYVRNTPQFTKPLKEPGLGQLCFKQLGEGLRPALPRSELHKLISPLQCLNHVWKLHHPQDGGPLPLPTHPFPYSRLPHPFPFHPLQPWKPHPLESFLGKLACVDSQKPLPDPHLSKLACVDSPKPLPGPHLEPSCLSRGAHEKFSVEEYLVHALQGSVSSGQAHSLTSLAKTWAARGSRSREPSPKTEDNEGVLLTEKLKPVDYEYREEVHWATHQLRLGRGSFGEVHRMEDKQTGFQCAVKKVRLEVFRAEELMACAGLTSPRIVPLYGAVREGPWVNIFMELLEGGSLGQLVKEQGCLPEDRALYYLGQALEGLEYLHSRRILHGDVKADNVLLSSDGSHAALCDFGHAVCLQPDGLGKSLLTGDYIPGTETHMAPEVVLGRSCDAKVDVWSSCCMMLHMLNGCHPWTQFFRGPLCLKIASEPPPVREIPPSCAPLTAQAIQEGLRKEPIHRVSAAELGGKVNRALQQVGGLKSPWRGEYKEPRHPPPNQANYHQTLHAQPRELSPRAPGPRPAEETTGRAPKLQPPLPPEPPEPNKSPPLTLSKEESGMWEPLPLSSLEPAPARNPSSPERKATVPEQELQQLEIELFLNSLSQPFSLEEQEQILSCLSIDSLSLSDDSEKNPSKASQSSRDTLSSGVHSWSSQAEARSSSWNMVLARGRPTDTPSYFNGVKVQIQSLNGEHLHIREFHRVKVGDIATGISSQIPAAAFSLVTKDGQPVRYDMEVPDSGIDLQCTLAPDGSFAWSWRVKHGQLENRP

[4] = tested on: KMS12-BM (NIK WT) multiple myeloma cells; test: Antiproliferative activity on KMS12-BM multiple myeloma cells (CellTiter-Glo); assay type: cell-based, human; conditions: 96 hr treatment, averaged values, read-out: KMS-12 Proliferation inhibition (IC50 (nM))
Summary of the method: as §1

Structure (SMILES) | IC50 [1] [nM] | IC50 [2] [nM] | IC50 [3] [nM] | IC50 [4] [nM] | IC50 ([1]; Homo sapiens, L-363, 2 h) [nM] | IC50 ([2]; Homo sapiens, JJN-3, 96 h) [nM] | IC50 ([4]; Homo sapiens, KMS-12-BM, 96 h) [nM] | melting point [°C]
Cc1cnc(OC2CCN(C)CC2F)c(Nc2nccc(-c3cc(C#N)c4c(c3)[C@@](C)(CO)CN4)n2)c1 (mixture of isomers) [Compound 171] | 6.9 | 12 | 7.4 | > 10000 | – | – | – | –
COc1ncccc1Nc1nccc(-c2cc(C#N)c3c(c2)C(C)(CO)CN3)n1 (stereo not drawn) [Compound 1] | – | – | – | – | 81.3 | 79 | ~2690 | –
Cc1cc(Nc2nccc(-c3cc(C#N)c4c(c3)[C@@](C)(CO)CN4)n2)c(=O)n(CCC2CC2)c1 [Compound 5i] | – | – | 4.5 | – | 15.8 | 282 | 5010 | –
Cc1cc(Nc2nccc(-c3cc(C#N)c4c(c3)[C@@](C)(CO)CN4)n2)c(=O)n(CCN2CCOCC2)c1 [Compound 7i] | – | – | 1.2 | – | 3.7 | 115 | 9550 | –
CN1CCC(c2cc(Nc3nccc(-c4cc(C#N)c5c(c4)[C@@](C)(CO)CN5)n3)c(=O)n(CC3CC3)c2)CC1 [Compound 21i] | – | – | 64.6 | – | 550 | – | – | –
CNC(=O)c1cc(Nc2nccc(-c3cc(C#N)c4c(c3)[C@@](C)(CO)CN4)n2)c(=O)n(CC2CC2)c1 [Compound 25i] | – | – | 1.7 | – | 9.5 | 120 | > 10000 | –
Cc1cc(Nc2nccc(-c3cc(C#N)c4c(c3)[C@@](C)(CO)CN4)n2)c(=O)n(CC2COCCN2C)c1 (stereo partly drawn) [Compound 26i] | – | – | 2.1 | – | 2.3 | 28 | > 10000 | –
Cc1cc(Nc2nccc(-c3cc(C#N)c4c(c3)C(C)(C)CN4)n2)c(=O)n(CCN2CC(F)C2)c1 [Compound 27i] | – | – | 5.8 | – | 13.8 | 148 | > 10000 | –
CC(C)Oc1nc(P(C)(C)=O)ccc1Nc1nccc(-c2cc(C#N)c3c(c2)[C@@](C)(CO)CN3)n1 [Compound 57] | – | – | 4.3 | – | 13.8 | 316 | ~8130 | –
COc1ncccc1Nc1nccc(-c2cc(C#N)c3c(c2)C(C)(CN2CCNCC2)CN3)n1 (stereo not drawn) [Compound 111] | – | – | 14.8 | – | – | 669 | 3160 | 220
COc1ncccc1Nc1nccc(-c2cc(C#N)c3c(c2)C(C)(CNCCS(C)(=O)=O)CN3)n1 (stereo not drawn) [Compound 112] | – | – | 22.9 | – | – | 1820 | > 10000 | 146
COc1ncccc1Nc1nccc(-c2cc(C#N)c3c(c2)C(C)(CN2CCOCC2)CN3)n1 (stereo not drawn) [Compound 113] | – | – | 34.7 | – | – | 5750 | > 10000 | 95
COc1ncccc1Nc1nccc(-c2cc(C#N)c3c(c2)C(C)(CN(C)CCO)CN3)n1 (stereo not drawn) [Compound 114] | – | – | 32.4 | – | – | 3550 | > 10000 | 60
COc1ncccc1Nc1nccc(-c2cc(C#N)c3c(c2)C(C)(CNC(C)=O)CN3)n1 (stereo not drawn) [Compound 115] | – | – | 10 | – | – | 741 | 6310 | 203
COc1ncccc1Nc1nccc(-c2cc(C#N)c3c(c2)C(C)(COCCNC(C)C)CN3)n1 (stereo not drawn) [Compound 116] | – | – | 85.1 | – | – | 2040 | > 10000 | 95
COc1ncccc1Nc1nccc(-c2cc(C#N)c3c(c2)C(C)(COCCN2CCOCC2)CN3)n1 (stereo not drawn) [Compound 117] | – | – | 45.7 | – | – | > 10000 | > 10000 | 108
COc1ncccc1Nc1nccc(-c2cc(C#N)c3c(c2)C(C)(COCCN2CCCC2)CN3)n1 (stereo not drawn) [Compound 118] | – | – | 64.6 | – | – | 4570 | 4070 | 88
COc1ncc(Cl)cc1Nc1nccc(-c2cc(C#N)c3c(c2)C(C)(COCCNC2CC2)CN3)n1 (stereo not drawn) [Compound 119] | – | – | 129 | – | – | 1290 | 2000 | 106
COc1ncc(Cl)cc1Nc1nccc(-c2cc(C#N)c3c(c2)C(C)(COCCN2CCCC2)CN3)n1 (stereo not drawn) [Compound 120] | – | – | 79.4 | – | – | 631 | 1230 | 152
COc1ncc(Cl)cc1Nc1nccc(-c2cc(C#N)c3c(c2)C(C)(COCCN2CCOCC2)CN3)n1 (stereo not drawn) [Compound 121] | – | – | 117 | – | – | 1410 | 2510 | 104
COC[C@@]1(C)CNc2c(C#N)cc(-c3ccnc(Nc4cc(Cl)cnc4C)n3)cc21 [Compound 122] | – | – | 9.5 | – | – | 478 | 4790 | 182
CC1(C)CNc2c(C#N)cc(-c3ccnc(Nc4cnc(N5CCOCC5)nc4)n3)cc21 [Compound 125] | – | – | 9.8 | – | – | 166 | 891 | 270
Cc1ccnc(Nc2nccc(-c3cc(C#N)c4c(c3)C(C)(CO)CN4)n2)n1 (stereo not drawn) [Compound 126] | – | – | 148 | – | – | 2510 | > 10000 | 227
Cc1cc(Nc2nccc(-c3cc(C#N)c4c(c3)C(C)(CO)CN4)n2)nc(C)n1 (stereo not drawn) [Compound 127] | – | – | 4.5 | – | – | ~7080 | > 10000 | 333
CC1(CO)CNc2c(C#N)cc(-c3ccnc(Nc4cncnc4)n3)cc21 (stereo not drawn) [Compound 128] | – | – | 6.3 | – | – | 209 | ~195 | 307
COc1nc(C)ncc1Nc1nccc(-c2cc(C#N)c3c(c2)[C@@](C)(CO)CN3)n1 [Compound 129] | – | – | 1.8 | – | – | 562 | > 10000 | 223
COCCOc1nc(C)ncc1Nc1nccc(-c2cc(C#N)c3c(c2)[C@@](C)(CO)CN3)n1 [Compound 136] | – | – | 18.2 | – | – | 2000 | > 10000 | 231
CNC(=O)c1ncc(Cl)cc1Nc1nccc(-c2cc(C#N)c3c(c2)C(C)(CO)CN3)n1 (stereo not drawn) [Compound 178] | – | – | 18.2 | – | 51.3 | – | – | –
CC1(CO)CNc2c(C#N)cc(-c3ccnc(Nc4cc(Cl)cnc4C(=O)N4CCCC4)n3)cc21 (stereo not drawn) [Compound 179] | – | – | 93.3 | – | 1440 | – | – | –
COc1ncccc1Nc1ncnc(-c2cc(C#N)c3c(c2)[C@@](C)(CO)CN3)n1 [Compound 181] | – | – | 5.2 | – | 25.1 | – | – | –
